pKd: −log10 of the molar value.
Legend:
K289M pol β = biological target: T1, K289M pol β (Homo sapiens, UniProt P06746, K289M); assay: Single turnover polymerase activity (rapid-quench), K289M pol β; format: biochemical; conditions: for kpol / pKd / Specificity (kpol/KD): templating base C; for D KD (i/c): KD(incorrect)/KD(correct): dCTP incorrect, dGTP correct; for pKd: apparent dNTP dissociation constant
T1 construct: made in house
Method: (§1) A solution containing 50 nM DNA and 200 nM polymerase was rapidly mixed with varying concentrations of dNTP at 37 °C in 50 mM Tris pH 8.0, 20 mM NaCl, 10 mM MgCl2, 2 mM DTT and 10% glycerol using a KinTek rapid-quench flow apparatus. Reactions were quenched with EDTA and the product was separated from the initial reactant on a 20% polyacrylamide gel containing 8 M urea. Rate of phosphodiester bond formation (kpol) and the apparent dNTP dissociation constant (KD) were extracted as previously reported ([16]). Fidelity was calculated using the catalytic specificity (kpol/KD) for correct (dGTP) and incorrect (dCTP): (kpol/KD)correct/(kpol/KD) incorrect ([37]).

WT pol β = biological target: T2, WT pol β (Homo sapiens, UniProt P06746); assay: Single turnover polymerase activity (rapid-quench), WT pol β; format: biochemical; conditions: for kpol / pKd / Specificity (kpol/KD): templating base C; for D KD (i/c): KD(incorrect)/KD(correct): dCTP incorrect, dGTP correct; for pKd: apparent dNTP dissociation constant
T2 construct: made in house
Method: as §1

| Structure (SMILES) | kpol (K289M pol β; APC in Control sequence) [s⁻¹] | kpol (K289M pol β; APC sequence) [s⁻¹] | kpol (K289M pol β; Control in APC sequence) [s⁻¹] | kpol (K289M pol β; Control sequence) [s⁻¹] | pKd (K289M pol β; APC in Control sequence) | pKd (K289M pol β; APC sequence) | pKd (K289M pol β; Control in APC sequence) | pKd (K289M pol β; Control sequence) | kpol (WT pol β; APC in Control sequence) [s⁻¹] | kpol (WT pol β; APC sequence) [s⁻¹] | kpol (WT pol β; Control in APC sequence) [s⁻¹] | kpol (WT pol β; Control sequence) [s⁻¹] | pKd (WT pol β; APC in Control sequence) | pKd (WT pol β; APC sequence) | pKd (WT pol β; Control in APC sequence) | pKd (WT pol β; Control sequence) | other results |
| --- | --- | --- | --- | --- | --- | --- | --- | --- | --- | --- | --- | --- | --- | --- | --- | --- | --- |
| Nc1ccn([C@H]2C[C@H](O)[C@@H](COP(=O)(O)OP(=O)(O)OP(=O)(O)O)O2)c(=O)n1 [dCTP] | 0.05 | 0.05 | 0.02 | 0.02 | 3.12 | 3.57 | 3.12 | 3.11 | 0.04 | 0.22 | 0.03 | 0.07 | 3.41 | 3.47 | 3.34 | 2.89 | D KD (i/c): KD(incorrect)/KD(correct) (K289M pol β; APC in Control sequence): 511; D KD (i/c): KD(incorrect)/KD(correct) (K289M pol β; APC sequence): 205; D KD (i/c): KD(incorrect)/KD(correct) (K289M pol β; Control in APC sequence): 758; D KD (i/c): KD(incorrect)/KD(correct) (K289M pol β; Control sequence): 778; D KD (i/c): KD(incorrect)/KD(correct) (WT pol β; APC in Control sequence): 111; D KD (i/c): KD(incorrect)/KD(correct) (WT pol β; APC sequence): 148; D KD (i/c): KD(incorrect)/KD(correct) (WT pol β; Control in APC sequence): 268; D KD (i/c): KD(incorrect)/KD(correct) (WT pol β; Control sequence): 639 |
| Nc1nc2c(ncn2C2CC(O)C(COP(=O)(O)OP(=O)(O)C(F)P(=O)(O)O)O2)c(=O)[nH]1 (mixture of isomers) [CHF] | 1.36 | 0.90 | 1.50 | 1.50 | 5.98 | 5.80 | 5.92 | 5.89 | 25.1 | 36.4 | 19.9 | 10.2 | 5.28 | 5.12 | 5.66 | 5.38 | Specificity (kpol/KD) (K289M pol β; APC in Control sequence): 1.31e+06 M⁻¹ s⁻¹; Specificity (kpol/KD) (K289M pol β; APC sequence): 560000 M⁻¹ s⁻¹; Specificity (kpol/KD) (K289M pol β; Control in APC sequence): 1.25e+06 M⁻¹ s⁻¹; Specificity (kpol/KD) (K289M pol β; Control sequence): 1.15e+06 M⁻¹ s⁻¹; Specificity (kpol/KD) (WT pol β; APC in Control sequence): 4.8e+06 M⁻¹ s⁻¹; Specificity (kpol/KD) (WT pol β; APC sequence): 4.9e+06 M⁻¹ s⁻¹; Specificity (kpol/KD) (WT pol β; Control in APC sequence): 9e+06 M⁻¹ s⁻¹; Specificity (kpol/KD) (WT pol β; Control sequence): 2.4e+06 M⁻¹ s⁻¹ |

Source: article PMC7145665, “A pre-catalytic non-covalent step governs DNA polymerase β fidelity” (Nucleic Acids Research, 2019)
